# Experimental data as given in the kinase profiling compilation of Christmann-Franck et al. (2016).
# Legend:
# Assay in all cases: radiometric filter-binding kinase assay
# MST4 (human) = MST4 (human) (UniProt Q9P289)
# [1] = target: STK11 CAB39 STRADA (human) (UniProt Q9Y376+Q7RTN6+Q15831)
# INSR (human) = INSR (human) (UniProt P06213)
# PKN2 (human) = PKN2 (human) (UniProt Q16513)
# MAP3K5 (human) = MAP3K5 (human) (UniProt Q99683)
# NTRK1 (human) = NTRK1 (human) (UniProt P04629)
# EPHB3 (human) = EPHB3 (human) (UniProt P54753)
# PRKCZ (human) = PRKCZ (human) (UniProt Q05513)
# PIM1 (human) = PIM1 (human) (UniProt P11309)
# EEF2K (human) = EEF2K (human) (UniProt O00418); conditions: compound 10.0 µM
# MAP3K1 (human) = MAP3K1 (human) (UniProt Q13233)
# GSK3B (human) = GSK3B (human) (UniProt P49841)
# MAP3K9 (human) = MAP3K9 (human) (UniProt P80192)
# MAP2K2 (human) = MAP2K2 (human) (UniProt P36507)
# PAK4 (human) = PAK4 (human) (UniProt O96013)
# MAPK12 (human) = MAPK12 (human) (UniProt P53778)
# MAPKAPK2 (human) = MAPKAPK2 (human) (UniProt P49137)
# IRAK4 (human) = IRAK4 (human) (UniProt Q9NWZ3)
# MAPK9 (human) = MAPK9 (human) (UniProt P45984)
# DYRK2 (human) = DYRK2 (human) (UniProt Q92630)
# MAP2K6 (human) = MAP2K6 (human) (UniProt P52564)
# PRKCA (human) = PRKCA (human) (UniProt P17252)
# MARK2 (human) = MARK2 (human) (UniProt Q7KZI7)
# ERBB4 (human) = ERBB4 (human) (UniProt Q15303)
# EPHA2 (human) = EPHA2 (human) (UniProt P29317)
# [2] = tested on: AKT1 (human), P31749 [S473D]
# MAP3K7 TAB1 (human) = MAP3K7 TAB1 (human) (UniProt Q15750+O43318)
# PAK6 (human) = PAK6 (human) (UniProt Q9NQU5)
# NUAK1 (human) = NUAK1 (human) (UniProt O60285)
# MARK1 (human) = MARK1 (human) (UniProt Q9P0L2)
# MARK4 (human) = MARK4 (human) (UniProt Q96L34)
# MAP3K11 (human) = MAP3K11 (human) (UniProt Q16584)
# HIPK3 (human) = HIPK3 (human) (UniProt Q9H422)
# AURKA (human) = AURKA (human) (UniProt O14965)
# BRSK1 (human) = BRSK1 (human) (UniProt Q8TDC3)
# MELK (human) = MELK (human) (UniProt Q14680)
# Chain of MAPKAPK2 (human) (P49137 whole entry, looked up): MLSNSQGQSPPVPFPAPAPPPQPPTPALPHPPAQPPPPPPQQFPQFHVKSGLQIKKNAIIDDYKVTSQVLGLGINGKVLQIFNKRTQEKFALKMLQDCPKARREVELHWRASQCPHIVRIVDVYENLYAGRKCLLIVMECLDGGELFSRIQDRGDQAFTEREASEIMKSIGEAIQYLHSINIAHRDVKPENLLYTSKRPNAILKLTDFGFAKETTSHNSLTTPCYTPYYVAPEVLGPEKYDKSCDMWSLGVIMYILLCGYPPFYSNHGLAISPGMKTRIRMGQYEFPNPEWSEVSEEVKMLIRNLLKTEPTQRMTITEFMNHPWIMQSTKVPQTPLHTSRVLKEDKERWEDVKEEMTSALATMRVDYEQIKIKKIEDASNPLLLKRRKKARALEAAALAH
# Chain of MST4 (human) (Q9P289 whole entry, looked up): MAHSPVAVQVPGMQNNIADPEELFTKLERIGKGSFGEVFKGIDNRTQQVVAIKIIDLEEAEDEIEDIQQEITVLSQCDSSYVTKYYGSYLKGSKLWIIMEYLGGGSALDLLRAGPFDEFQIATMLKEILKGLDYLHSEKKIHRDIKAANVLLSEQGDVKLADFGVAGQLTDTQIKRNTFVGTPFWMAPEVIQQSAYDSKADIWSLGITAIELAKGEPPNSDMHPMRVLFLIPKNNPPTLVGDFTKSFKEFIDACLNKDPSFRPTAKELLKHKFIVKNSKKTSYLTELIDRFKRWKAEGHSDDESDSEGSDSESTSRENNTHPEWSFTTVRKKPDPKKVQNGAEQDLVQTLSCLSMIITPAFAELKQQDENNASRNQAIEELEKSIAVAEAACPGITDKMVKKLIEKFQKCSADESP
# Chain of STK11 CAB39 STRADA (human) (Q15831 whole entry, looked up): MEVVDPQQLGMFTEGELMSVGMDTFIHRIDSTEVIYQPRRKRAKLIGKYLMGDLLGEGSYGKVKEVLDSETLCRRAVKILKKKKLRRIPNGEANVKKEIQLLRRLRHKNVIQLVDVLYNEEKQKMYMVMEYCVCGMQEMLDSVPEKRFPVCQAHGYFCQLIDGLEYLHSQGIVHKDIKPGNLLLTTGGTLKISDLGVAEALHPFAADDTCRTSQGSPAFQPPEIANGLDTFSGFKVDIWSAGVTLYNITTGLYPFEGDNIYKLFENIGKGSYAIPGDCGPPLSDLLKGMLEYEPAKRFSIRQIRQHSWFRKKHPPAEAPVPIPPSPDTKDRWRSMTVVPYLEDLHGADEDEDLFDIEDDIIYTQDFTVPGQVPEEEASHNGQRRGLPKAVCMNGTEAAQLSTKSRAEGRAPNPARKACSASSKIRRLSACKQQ
# Chain of STK11 CAB39 STRADA (human) (Q7RTN6 whole entry, looked up): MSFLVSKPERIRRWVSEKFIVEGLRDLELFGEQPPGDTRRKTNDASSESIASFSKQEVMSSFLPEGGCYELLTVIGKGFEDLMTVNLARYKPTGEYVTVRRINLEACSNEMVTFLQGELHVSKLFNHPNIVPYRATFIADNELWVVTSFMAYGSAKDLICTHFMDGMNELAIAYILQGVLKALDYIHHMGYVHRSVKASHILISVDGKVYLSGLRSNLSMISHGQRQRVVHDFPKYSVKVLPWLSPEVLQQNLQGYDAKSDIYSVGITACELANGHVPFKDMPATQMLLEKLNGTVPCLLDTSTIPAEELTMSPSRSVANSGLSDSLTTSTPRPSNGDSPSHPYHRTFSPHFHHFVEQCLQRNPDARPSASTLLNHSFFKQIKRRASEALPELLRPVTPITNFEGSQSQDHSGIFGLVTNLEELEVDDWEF
# Chain of STK11 CAB39 STRADA (human) (Q9Y376 whole entry, looked up): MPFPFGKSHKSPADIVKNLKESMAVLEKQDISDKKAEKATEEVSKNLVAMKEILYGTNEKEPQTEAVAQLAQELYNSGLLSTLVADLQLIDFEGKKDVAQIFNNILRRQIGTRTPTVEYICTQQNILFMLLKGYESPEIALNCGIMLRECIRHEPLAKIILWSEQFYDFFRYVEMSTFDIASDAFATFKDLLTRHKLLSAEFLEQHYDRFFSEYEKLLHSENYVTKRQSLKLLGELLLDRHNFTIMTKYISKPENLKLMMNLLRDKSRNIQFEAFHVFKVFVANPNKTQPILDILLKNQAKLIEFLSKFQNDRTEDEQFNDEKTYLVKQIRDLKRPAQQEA
# Chain of MAPK12 (human) (P53778 whole entry, looked up): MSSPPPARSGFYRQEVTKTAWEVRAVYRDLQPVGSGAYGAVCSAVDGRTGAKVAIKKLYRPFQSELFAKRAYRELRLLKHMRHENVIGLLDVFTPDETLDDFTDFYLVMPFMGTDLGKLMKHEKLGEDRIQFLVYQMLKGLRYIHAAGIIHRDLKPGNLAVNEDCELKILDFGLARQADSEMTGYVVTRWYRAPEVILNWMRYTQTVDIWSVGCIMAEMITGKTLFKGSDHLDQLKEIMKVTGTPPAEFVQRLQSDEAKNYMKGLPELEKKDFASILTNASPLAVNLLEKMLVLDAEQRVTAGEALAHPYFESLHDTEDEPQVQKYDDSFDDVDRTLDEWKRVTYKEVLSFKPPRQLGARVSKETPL
# Chain of DYRK2 (human) (Q92630 whole entry, looked up): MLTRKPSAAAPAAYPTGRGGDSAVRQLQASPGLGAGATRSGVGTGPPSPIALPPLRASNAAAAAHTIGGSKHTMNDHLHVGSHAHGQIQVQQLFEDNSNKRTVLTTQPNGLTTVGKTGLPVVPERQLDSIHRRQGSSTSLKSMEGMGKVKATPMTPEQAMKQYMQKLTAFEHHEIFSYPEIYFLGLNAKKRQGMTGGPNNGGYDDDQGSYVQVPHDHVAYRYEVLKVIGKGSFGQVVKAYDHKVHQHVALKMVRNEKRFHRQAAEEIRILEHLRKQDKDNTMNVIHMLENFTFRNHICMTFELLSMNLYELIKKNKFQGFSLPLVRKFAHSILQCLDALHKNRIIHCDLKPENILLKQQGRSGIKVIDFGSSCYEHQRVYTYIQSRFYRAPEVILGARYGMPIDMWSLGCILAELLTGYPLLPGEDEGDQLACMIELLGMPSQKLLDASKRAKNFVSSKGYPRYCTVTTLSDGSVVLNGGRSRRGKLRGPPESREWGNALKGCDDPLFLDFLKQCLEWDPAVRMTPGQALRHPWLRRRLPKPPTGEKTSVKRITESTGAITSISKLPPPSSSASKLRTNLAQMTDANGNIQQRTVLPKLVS
# Chain of HIPK3 (human) (Q9H422 whole entry, looked up): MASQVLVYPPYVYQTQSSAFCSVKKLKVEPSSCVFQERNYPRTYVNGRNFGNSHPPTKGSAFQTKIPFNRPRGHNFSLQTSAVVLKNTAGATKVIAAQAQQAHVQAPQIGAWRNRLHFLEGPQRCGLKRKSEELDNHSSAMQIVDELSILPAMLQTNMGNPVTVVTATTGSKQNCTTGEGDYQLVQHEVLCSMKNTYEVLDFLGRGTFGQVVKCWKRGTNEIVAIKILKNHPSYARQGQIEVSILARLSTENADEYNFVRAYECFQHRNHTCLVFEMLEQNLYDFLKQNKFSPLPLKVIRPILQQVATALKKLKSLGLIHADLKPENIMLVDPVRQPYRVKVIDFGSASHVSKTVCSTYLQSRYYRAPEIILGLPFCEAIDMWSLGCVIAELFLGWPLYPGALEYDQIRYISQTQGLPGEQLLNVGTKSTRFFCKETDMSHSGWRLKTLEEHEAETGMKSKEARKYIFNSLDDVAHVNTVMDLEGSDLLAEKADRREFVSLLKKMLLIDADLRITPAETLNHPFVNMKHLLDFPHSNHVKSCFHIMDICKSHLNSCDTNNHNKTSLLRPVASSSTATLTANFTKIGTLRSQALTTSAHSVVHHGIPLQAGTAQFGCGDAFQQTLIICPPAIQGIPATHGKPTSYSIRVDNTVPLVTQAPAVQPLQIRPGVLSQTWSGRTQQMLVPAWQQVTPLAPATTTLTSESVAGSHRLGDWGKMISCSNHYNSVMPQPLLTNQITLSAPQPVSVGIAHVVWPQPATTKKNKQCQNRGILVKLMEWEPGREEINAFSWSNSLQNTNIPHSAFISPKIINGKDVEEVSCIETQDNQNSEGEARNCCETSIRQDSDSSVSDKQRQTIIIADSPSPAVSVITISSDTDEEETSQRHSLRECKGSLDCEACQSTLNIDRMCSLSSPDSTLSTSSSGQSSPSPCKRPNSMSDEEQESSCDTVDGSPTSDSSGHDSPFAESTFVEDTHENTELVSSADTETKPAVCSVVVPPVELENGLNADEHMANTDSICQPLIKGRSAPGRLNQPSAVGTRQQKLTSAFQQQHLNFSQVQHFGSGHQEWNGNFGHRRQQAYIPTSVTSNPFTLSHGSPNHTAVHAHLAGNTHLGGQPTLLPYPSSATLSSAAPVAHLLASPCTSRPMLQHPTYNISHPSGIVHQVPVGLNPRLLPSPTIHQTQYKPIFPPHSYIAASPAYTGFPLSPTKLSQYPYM
# Chain of PAK4 (human) (O96013 whole entry, looked up): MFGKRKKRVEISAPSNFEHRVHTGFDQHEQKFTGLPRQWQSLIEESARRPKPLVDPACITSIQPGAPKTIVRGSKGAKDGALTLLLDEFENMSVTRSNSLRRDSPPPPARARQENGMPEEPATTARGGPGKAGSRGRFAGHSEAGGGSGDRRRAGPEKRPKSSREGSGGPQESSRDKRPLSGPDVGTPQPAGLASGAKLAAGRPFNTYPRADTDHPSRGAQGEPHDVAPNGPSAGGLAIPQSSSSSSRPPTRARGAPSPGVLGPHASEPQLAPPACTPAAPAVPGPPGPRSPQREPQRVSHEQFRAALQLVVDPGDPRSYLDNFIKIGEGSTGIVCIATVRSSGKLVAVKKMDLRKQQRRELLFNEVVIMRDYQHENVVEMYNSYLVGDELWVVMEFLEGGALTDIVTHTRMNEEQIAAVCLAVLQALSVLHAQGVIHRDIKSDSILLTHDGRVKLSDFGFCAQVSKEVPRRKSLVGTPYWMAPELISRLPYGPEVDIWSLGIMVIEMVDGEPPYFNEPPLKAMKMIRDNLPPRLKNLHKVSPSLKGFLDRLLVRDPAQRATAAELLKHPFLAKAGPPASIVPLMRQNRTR
smiles,measurement,setting,value
NCC(=O)Nc1ccc(-n2nc(C(F)(F)F)cc2-c2ccc3c(ccc4ccccc43)c2)cc1,residual activity,MST4 (human); compound 1.0 µM,80%
same,residual activity,MST4 (human); compound 10.0 µM,72%
same,residual activity,[1]; compound 1.0 µM,103%
same,residual activity,[1]; compound 10.0 µM,99%
same,residual activity,INSR (human); compound 1.0 µM,98%
same,residual activity,INSR (human); compound 10.0 µM,94%
same,residual activity,PKN2 (human); compound 1.0 µM,85%
same,residual activity,PKN2 (human); compound 10.0 µM,63%
same,residual activity,MAP3K5 (human); compound 1.0 µM,86%
same,residual activity,MAP3K5 (human); compound 10.0 µM,83%
same,residual activity,NTRK1 (human); compound 1.0 µM,90%
same,residual activity,NTRK1 (human); compound 10.0 µM,90%
same,residual activity,EPHB3 (human); compound 1.0 µM,72%
same,residual activity,EPHB3 (human); compound 10.0 µM,82%
same,residual activity,PRKCZ (human); compound 1.0 µM,94%
same,residual activity,PRKCZ (human); compound 10.0 µM,61%
same,residual activity,PIM1 (human); compound 1.0 µM,92%
same,residual activity,PIM1 (human); compound 10.0 µM,94%
same,residual activity,EEF2K (human),75%
same,residual activity,MAP3K1 (human); compound 1.0 µM,93%
same,residual activity,MAP3K1 (human); compound 10.0 µM,103%
same,residual activity,GSK3B (human); compound 1.0 µM,110%
same,residual activity,GSK3B (human); compound 10.0 µM,119%
same,residual activity,MAP3K9 (human); compound 1.0 µM,99%
same,residual activity,MAP3K9 (human); compound 10.0 µM,80%
same,residual activity,MAP2K2 (human); compound 1.0 µM,123%
same,residual activity,MAP2K2 (human); compound 10.0 µM,113%
same,residual activity,PAK4 (human); compound 1.0 µM,84%
same,residual activity,PAK4 (human); compound 10.0 µM,70%
same,residual activity,MAPK12 (human); compound 1.0 µM,94%
same,residual activity,MAPK12 (human); compound 10.0 µM,70%
same,residual activity,MAPKAPK2 (human); compound 1.0 µM,91%
same,residual activity,MAPKAPK2 (human); compound 10.0 µM,95%
same,residual activity,IRAK4 (human); compound 1.0 µM,84%
same,residual activity,IRAK4 (human); compound 10.0 µM,79%
same,residual activity,MAPK9 (human); compound 1.0 µM,102%
same,residual activity,MAPK9 (human); compound 10.0 µM,96%
same,residual activity,DYRK2 (human); compound 1.0 µM,89%
same,residual activity,DYRK2 (human); compound 10.0 µM,121%
same,residual activity,MAP2K6 (human); compound 1.0 µM,82%
same,residual activity,MAP2K6 (human); compound 10.0 µM,74%
same,residual activity,PRKCA (human); compound 1.0 µM,94%
same,residual activity,PRKCA (human); compound 10.0 µM,90%
same,residual activity,MARK2 (human); compound 1.0 µM,94%
same,residual activity,MARK2 (human); compound 10.0 µM,89%
same,residual activity,ERBB4 (human); compound 1.0 µM,106%
same,residual activity,ERBB4 (human); compound 10.0 µM,104%
same,residual activity,EPHA2 (human); compound 1.0 µM,92%
same,residual activity,EPHA2 (human); compound 10.0 µM,94%
same,residual activity,[2]; compound 1.0 µM,91%
same,residual activity,[2]; compound 10.0 µM,53%
same,residual activity,MAP3K7 TAB1 (human); compound 1.0 µM,74%
same,residual activity,MAP3K7 TAB1 (human); compound 10.0 µM,36%
same,residual activity,PAK6 (human); compound 1.0 µM,88%
same,residual activity,PAK6 (human); compound 10.0 µM,28%
same,residual activity,NUAK1 (human); compound 1.0 µM,85%
same,residual activity,NUAK1 (human); compound 10.0 µM,61%
same,residual activity,MARK1 (human); compound 1.0 µM,87%
same,residual activity,MARK1 (human); compound 10.0 µM,79%
same,residual activity,MARK4 (human); compound 1.0 µM,88%
same,residual activity,MARK4 (human); compound 10.0 µM,102%
same,residual activity,MAP3K11 (human); compound 1.0 µM,94%
same,residual activity,MAP3K11 (human); compound 10.0 µM,87%
same,residual activity,HIPK3 (human); compound 1.0 µM,94%
same,residual activity,HIPK3 (human); compound 10.0 µM,64%
same,residual activity,AURKA (human); compound 1.0 µM,95%
same,residual activity,AURKA (human); compound 10.0 µM,107%
same,residual activity,BRSK1 (human); compound 1.0 µM,83%
same,residual activity,BRSK1 (human); compound 10.0 µM,89%
same,residual activity,MELK (human); compound 1.0 µM,92%
same,residual activity,MELK (human); compound 10.0 µM,75%
